Laboratory results published in patent US20260364101A1, “OLEUROPEIN IN THE MANAGEMENT OF CANCER” (FUNDACIÓN MIGUEL SERVET, priority 2023, published 2026).

Tested on: CD4 T cells
Assay: mixed lymphocyte reaction (MLR) with MDSCs as stimulator cells (FIG. 1c,d)
Type: cell-based, mouse
Description: MLR were carried out following standard procedures. Briefly, 100,000 MDSCs or TAMs from C57BL/6 mice were co-cultured in 96-well plates with 100,000 lymphocytes from BALB/c mice. Co-cultured cells were treated with 50 µM oleuropein and compared with control vehicle. After 5 days, T-lymphocyte activation, differentiation and proliferation were assessed by flow cytometry. T-cell activation and proliferation markers (Ki-67) and pro-inflammatory cytokine production (IL-2 and IFNγ) were evaluated by flow cytometry in CD4 and CD8 T cells as described before.
Surface and intracellular staining were carried out as described before with the following fluorochrome-conjugated antibody clones: AF488 anti-CD49d (R1-2), PE anti-CD4 (GK1.5), APCanti-CD8(53-6.7), brilliant Violet 510™ anti-I-A/I-E (M5/114.15.2,PE/Cyanine7anti-Ly-6G (1A8), and APC anti-CD80 (16-10A1) (Biolegend), FITC anti-IL-12 (C15.6) and BV421 anti-IL-2 (JES6-5H4) (BD Bioscience), APC-Vio® 770 anti-Ly-6C (REA796), PE REAfinity™ anti-F4/80 (REA126), and APC anti-CD68 (REA886) (Miltenyi), PerCP-Cyanine5.5 Anti-Human/Mouse CD11b (M1/70) (Tonbo), and AF488 anti-IFNγ (Clone XMG1.2) (BD Pharmigen). For human cells, it was used the following fluorochrome-conjugated antibodies: PerCP-Cy5.5-anti-CD11b (integrina alfa M) (M1/70), Violet Fluor 450 anti-CD14 antibody (61D3) (Tonbo), PE anti-CD115 (CSF-1R) (9-4D2-1E4) (Biolegend), PE-Cy™7 anti-CD11c (Clone B-ly6) (BD Bioscience), and APC anti-HLA-DR (REA517) (Miltenyi).

C/C=C1/[C@H](O[C@@H]2O[C@H](CO)[C@@H](O)[C@H](O)[C@H]2O)OC=C(C(=O)OC)[C@H]1CC(=O)OCCc1ccc(O)c(O)c1 [oleuropein]
T cell activation capacities (oleuropein-reprogrammed MDSCs and TAMs): enhanced T cell activation capacities | immune cell activation (particularly CD4 T cell activation): induces an immune cell activation | CD4 T cell stimulation assessed by IFNγ and IL-2 production (treated MDSCs as stimulators, 5 days): potently stimulated
